From patent US20130158267A1, “METHOD OF SYNTHESIZING THE COMPLEX [ZN(NNS)2] ACTIVE AGAINST THE MALARIA PARASITE PLASMODIUM” (priority 2010, published 2013) come the findings set out here.

For this assay, the system named is chloroquine resistant strain (W2). The assay can be described thus: activity against chloroquine resistant strain of the malaria parasite. The class given is cell-based, Plasmodium falciparum. Particulars: compared with control drug. An excerpt:
3-[1-(2-pyridyl)ethylidene]hydrazinecarbodithioate have moderate potency against falcipain-2 (FP-2) and falcipain-3 (FP-3) cysteine protease enzymes from the malaria parasite plasmodium falciparum while they portray enormous potency against the chloroquine resistant strain (W2) of the parasite. This patent describes the synthesis, characterization and biological results of metal complexes containing deprotonated 3-[1-(2-pyridyl) ethylidene] hydrazinecarbodithioate ligand (FIG. 1). The metal complex were synthesized and recrystallized. The biological activities (nanomolar) of the metal complex against malaria parasites were tested and tabled as table 2 in FIG. 6 of the drawings. The metal potency was far much greater than the control drug with respect to W-2 . This observation is extremely important as malaria resistance against the chloroquine drug is a great challenge today. This metal complex may act as lead compounds for developing future malaria drugs . […] The potency of cadmium is greatest with respect to W-2 compared to other metals as well as the control drug. The metal complex ZnL(LH)Cl containing the deprotonated dithioester L- have been synthesized and charachterized by elemental analysis, mass spectrometry, proton NMR and Fourier transform IR. The ligand LH undergoes tautomerism which can readily get ionized to generate a deprotonated ligand L-. […]

The structures appear in SMILES notation.

Consider `[Cd]` [cadmium], for which the “potency against W-2 in words / activity sequence versus control” value was “greatest”.
